Measured values: patent US10000483B2, “Bone marrow on X chromosome kinase (BMX) inhibitors and uses thereof” (Dana-Farber Cancer Institute, Inc., priority 2012, dated 2018)
Several values for one entry are separate records, joined by “and”; a condition that tells them apart may be missing. Equal entries are not always repeated.

Experiments:
BMX [1] = target: T1, BMX (Homo sapiens (Human), UniProt P51813); assay: Invitrogen Select Screening in vitro kinase assay; format: biochemical
BTK [2] = target: T2, BTK (Homo sapiens (Human), UniProt Q06187); assay: Invitrogen Select Screening in vitro kinase assay; format: biochemical
T2 sequence (Q06187 whole entry): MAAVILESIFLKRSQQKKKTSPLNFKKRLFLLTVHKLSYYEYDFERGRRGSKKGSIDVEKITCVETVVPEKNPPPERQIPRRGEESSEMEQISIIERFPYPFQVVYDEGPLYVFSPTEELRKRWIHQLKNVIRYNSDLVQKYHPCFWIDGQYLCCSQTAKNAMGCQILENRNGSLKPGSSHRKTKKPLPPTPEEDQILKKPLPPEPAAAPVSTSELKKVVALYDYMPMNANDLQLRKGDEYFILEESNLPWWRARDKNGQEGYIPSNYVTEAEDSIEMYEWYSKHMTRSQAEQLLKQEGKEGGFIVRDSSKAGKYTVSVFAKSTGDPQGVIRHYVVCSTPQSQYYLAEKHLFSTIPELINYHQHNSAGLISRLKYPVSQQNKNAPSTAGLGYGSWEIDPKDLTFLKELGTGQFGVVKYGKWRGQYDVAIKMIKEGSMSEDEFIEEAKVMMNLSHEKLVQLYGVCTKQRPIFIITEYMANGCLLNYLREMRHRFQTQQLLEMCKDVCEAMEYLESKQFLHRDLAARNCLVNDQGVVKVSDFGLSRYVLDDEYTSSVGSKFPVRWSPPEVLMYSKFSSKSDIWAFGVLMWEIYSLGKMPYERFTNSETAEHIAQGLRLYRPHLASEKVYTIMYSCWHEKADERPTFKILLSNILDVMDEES

BLK [3] = target: T3, BLK (Homo sapiens (Human), UniProt P51451); assay: Invitrogen Select Screening in vitro kinase assay; format: biochemical
T3 sequence (P51451 whole entry): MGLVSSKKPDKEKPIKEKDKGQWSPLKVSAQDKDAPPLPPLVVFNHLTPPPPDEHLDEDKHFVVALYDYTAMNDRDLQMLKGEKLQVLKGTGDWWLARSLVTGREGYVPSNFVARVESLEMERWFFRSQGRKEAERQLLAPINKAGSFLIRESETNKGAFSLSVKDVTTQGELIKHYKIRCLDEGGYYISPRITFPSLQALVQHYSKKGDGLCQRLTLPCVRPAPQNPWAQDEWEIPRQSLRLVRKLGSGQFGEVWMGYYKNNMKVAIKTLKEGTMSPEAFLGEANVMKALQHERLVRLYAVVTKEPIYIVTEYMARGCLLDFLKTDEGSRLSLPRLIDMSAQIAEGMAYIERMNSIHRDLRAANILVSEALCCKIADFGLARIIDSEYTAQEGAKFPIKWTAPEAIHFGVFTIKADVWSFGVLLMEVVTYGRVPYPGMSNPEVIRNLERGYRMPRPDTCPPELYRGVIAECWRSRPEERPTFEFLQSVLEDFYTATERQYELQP
Description: (§1) The in vitro activity of compounds of Formula (I) and (II) in inhibiting BMX and other kinases were obtained using an Invitrogen Select Screening assay as known in the art. The IC50 values determined from this assay are shown below.

mTOR [4] = target: T4, mTOR (Homo sapiens (Human), UniProt P42345); assay: Invitrogen Select Screening in vitro kinase assay; format: biochemical
Description: as §1

CLK1 [5] = target: T5, CLK1 (Homo sapiens (Human), UniProt P49759); assay: Invitrogen Select Screening in vitro kinase assay; format: biochemical; conditions: first value of CLK1/2 cell
T5 sequence (P49759 whole entry): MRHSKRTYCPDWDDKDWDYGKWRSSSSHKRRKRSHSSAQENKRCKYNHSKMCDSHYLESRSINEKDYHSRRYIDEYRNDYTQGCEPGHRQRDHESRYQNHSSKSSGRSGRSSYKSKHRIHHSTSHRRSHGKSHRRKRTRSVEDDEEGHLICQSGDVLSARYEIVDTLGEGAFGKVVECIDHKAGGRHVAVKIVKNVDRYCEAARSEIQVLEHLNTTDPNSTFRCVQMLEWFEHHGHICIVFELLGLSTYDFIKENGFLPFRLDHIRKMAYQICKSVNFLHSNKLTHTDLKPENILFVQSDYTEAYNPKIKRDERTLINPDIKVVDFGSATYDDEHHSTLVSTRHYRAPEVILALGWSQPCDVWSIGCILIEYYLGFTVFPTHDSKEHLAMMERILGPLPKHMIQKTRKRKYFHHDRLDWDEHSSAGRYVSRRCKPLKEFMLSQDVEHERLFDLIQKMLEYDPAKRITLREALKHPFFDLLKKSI

CLK2 [6] = target: T6, CLK2 (Homo sapiens (Human), UniProt P49760); assay: Invitrogen Select Screening in vitro kinase assay; format: biochemical; conditions: second value of CLK1/2 cell
T6 sequence (P49760 whole entry): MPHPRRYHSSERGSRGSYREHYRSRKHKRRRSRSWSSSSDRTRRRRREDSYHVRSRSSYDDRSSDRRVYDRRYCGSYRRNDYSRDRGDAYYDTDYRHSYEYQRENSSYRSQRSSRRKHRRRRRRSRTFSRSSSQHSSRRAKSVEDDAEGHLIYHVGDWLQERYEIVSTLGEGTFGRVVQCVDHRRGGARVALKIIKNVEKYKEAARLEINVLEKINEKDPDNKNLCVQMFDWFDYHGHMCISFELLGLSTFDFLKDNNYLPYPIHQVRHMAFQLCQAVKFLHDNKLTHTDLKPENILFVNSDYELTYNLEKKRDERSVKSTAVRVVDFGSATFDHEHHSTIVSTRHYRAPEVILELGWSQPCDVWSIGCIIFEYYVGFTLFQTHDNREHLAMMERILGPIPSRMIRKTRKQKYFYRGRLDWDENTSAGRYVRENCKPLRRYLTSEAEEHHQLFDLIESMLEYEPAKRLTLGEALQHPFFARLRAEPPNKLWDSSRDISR

JAK3 [7] = target: T7, JAK3 (Homo sapiens (Human), UniProt P52333); assay: Invitrogen Select Screening in vitro kinase assay; format: biochemical
T7 sequence (P52333 whole entry): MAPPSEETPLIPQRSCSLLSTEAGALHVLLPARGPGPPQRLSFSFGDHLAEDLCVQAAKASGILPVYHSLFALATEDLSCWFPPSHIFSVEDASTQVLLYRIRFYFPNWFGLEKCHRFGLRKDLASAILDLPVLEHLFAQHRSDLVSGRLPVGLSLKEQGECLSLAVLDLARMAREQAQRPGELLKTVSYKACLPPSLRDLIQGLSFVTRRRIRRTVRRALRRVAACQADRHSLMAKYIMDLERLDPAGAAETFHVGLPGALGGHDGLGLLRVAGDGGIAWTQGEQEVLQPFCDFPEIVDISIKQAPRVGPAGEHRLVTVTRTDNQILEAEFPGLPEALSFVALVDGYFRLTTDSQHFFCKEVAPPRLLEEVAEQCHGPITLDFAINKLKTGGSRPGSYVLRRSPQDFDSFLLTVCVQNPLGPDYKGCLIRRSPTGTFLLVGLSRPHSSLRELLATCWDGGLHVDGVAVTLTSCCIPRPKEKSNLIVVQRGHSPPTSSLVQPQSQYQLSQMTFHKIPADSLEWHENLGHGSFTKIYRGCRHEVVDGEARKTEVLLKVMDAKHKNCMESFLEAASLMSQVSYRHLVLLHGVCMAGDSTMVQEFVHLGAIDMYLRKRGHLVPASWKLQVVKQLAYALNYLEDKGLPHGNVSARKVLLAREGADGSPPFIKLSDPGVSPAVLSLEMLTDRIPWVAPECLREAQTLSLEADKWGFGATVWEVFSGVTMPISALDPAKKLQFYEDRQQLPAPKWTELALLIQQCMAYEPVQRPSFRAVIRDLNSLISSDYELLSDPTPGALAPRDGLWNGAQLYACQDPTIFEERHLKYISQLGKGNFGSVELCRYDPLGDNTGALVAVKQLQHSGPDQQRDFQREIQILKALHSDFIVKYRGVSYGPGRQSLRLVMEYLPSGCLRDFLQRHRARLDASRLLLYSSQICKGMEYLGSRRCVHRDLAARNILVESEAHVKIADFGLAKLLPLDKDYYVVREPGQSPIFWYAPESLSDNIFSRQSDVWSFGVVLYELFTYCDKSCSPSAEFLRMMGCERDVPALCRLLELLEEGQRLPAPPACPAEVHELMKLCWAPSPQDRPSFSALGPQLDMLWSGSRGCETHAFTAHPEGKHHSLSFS

EGFR(T790M) [8] = target: T8, EGFR(T790M) (Homo sapiens (Human), UniProt P00533, T790M); assay: Invitrogen Select Screening in vitro kinase assay; format: biochemical
BMX [9] = target: T1, BMX; assay: DiscoverX binding assay
Description: (§2) Screening hits are identified by measuring the amount of protein captured in test versus control samples by using a quantitative, precise, and ultra-sensitive qPCR method that detects the associated DNA label.

BLK [10] = target: T3, BLK; assay: DiscoverX binding assay
Description: as §2

BTK [11] = target: T2, BTK; assay: DiscoverX binding assay
Description: as §2

JAK3 [12] = target: T7, JAK3; assay: DiscoverX binding assay
Description: as §2

EGFR(T790M) [13] = target: T8, EGFR(T790M); assay: DiscoverX binding assay
Description: as §2

ITK = ITK (Homo sapiens (Human), UniProt Q08881); assay: DiscoverX binding assay
Chain of ITK (Q08881 whole entry): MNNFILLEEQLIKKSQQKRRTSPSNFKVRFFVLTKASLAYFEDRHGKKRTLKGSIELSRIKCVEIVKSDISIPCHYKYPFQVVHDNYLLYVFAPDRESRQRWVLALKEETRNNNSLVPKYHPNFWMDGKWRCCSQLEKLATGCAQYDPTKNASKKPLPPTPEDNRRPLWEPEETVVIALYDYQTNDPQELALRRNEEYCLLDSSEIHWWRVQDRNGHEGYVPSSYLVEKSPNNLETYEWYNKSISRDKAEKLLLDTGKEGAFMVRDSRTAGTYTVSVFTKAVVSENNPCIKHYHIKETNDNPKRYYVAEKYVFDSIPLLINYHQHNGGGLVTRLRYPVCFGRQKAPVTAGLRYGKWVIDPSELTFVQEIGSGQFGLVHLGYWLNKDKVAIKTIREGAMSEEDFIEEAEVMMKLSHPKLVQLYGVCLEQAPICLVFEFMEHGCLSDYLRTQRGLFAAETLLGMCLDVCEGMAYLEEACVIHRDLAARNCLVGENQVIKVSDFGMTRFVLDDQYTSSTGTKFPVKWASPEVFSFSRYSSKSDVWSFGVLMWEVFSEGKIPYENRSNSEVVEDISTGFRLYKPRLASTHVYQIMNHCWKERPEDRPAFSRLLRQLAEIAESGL
Description: as §2

TEC = TEC (Homo sapiens (Human), UniProt P42680); assay: DiscoverX binding assay
Description: as §2

mTOR [14] = target: T4, mTOR; assay: DiscoverX binding assay; conditions: DiscoverX binding
Description: as §2

CLK1 [15] = target: T5, CLK1; assay: DiscoverX binding assay
Description: as §2

CLK2 [16] = target: T6, CLK2; assay: DiscoverX binding assay
Description: as §2

PIK3CG = PIK3CG (Homo sapiens (Human), UniProt P48736); assay: Kinase panel at 1 uM (Table 9); format: binding; conditions: read-out: % inhibition at 1 uM, PIK3CG
Description: as §2

DYRK1A = DYRK1A (Homo sapiens (Human), UniProt Q13627); assay: Kinase panel at 1 uM (Table 9); format: binding; conditions: read-out: % inhibition at 1 uM, DYRK1A
Description: as §2

MKNK2 = MKNK2 (Homo sapiens (Human), UniProt Q9HBH9); assay: Kinase panel at 1 uM (Table 9); format: binding; conditions: read-out: % inhibition at 1 uM, MKNK2
Description: as §2

MEK5 = MEK5 (Homo sapiens (Human), UniProt Q13163); assay: Kinase panel at 1 uM (Table 9); format: binding; conditions: read-out: % inhibition at 1 uM, MEK5
Description: as §2

TAK1 = TAK1 (Homo sapiens (Human), UniProt O43318); assay: Kinase panel at 1 uM (Table 9); format: binding; conditions: read-out: % inhibition at 1 uM, TAK1
Description: as §2

PIK3CA(I800L) = PIK3CA(I800L) (Homo sapiens (Human), UniProt P42336, I800L); assay: Kinase panel at 1 uM (Table 9); format: binding; conditions: read-out: % inhibition at 1 uM, PIK3CA(I800L)
Description: as §2

DYRK2 = DYRK2 (Homo sapiens (Human), UniProt Q92630); assay: Kinase panel at 1 uM (Table 9); format: binding; conditions: read-out: % inhibition at 1 uM, DYRK2
Description: as §2

IRAK3 = IRAK3 (Homo sapiens (Human), UniProt Q9Y616); assay: Kinase panel at 1 uM (Table 9); format: binding; conditions: read-out: % inhibition at 1 uM, IRAK3
Description: as §2

CSNK2A2 = CSNK2A2 (Homo sapiens (Human), UniProt P19784); assay: Kinase panel at 1 uM (Table 9); format: binding; conditions: read-out: % inhibition at 1 uM, CSNK2A2
Chain of CSNK2A2 (P19784 whole entry): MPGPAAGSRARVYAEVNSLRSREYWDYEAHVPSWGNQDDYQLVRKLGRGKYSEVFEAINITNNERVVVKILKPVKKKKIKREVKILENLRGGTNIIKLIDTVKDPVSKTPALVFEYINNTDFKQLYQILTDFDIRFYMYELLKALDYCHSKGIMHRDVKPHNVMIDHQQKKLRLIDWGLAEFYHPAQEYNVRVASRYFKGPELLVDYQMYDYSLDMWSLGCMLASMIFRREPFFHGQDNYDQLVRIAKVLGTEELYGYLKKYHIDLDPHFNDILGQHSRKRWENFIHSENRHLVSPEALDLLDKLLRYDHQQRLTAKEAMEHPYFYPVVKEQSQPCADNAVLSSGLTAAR
Description: as §2

YSK4 = YSK4 (Homo sapiens (Human), UniProt Q56UN5); assay: Kinase panel at 1 uM (Table 9); format: binding; conditions: read-out: % inhibition at 1 uM, YSK4
Description: as §2

DYRK1B = DYRK1B (Homo sapiens (Human), UniProt Q9Y463); assay: Kinase panel at 1 uM (Table 9); format: binding; conditions: read-out: % inhibition at 1 uM, DYRK1B
Description: as §2

JNK3 = JNK3 (Homo sapiens (Human), UniProt P53779); assay: Kinase panel at 1 uM (Table 9); format: binding; conditions: read-out: % inhibition at 1 uM, JNK3
Description: as §2

JNK1 = JNK1 (Homo sapiens (Human), UniProt P45983); assay: Kinase panel at 1 uM (Table 9); format: binding; conditions: read-out: % inhibition at 1 uM, JNK1
Description: as §2

PIK4CB = PIK4CB (Homo sapiens (Human), UniProt Q9UBF8); assay: Kinase panel at 1 uM (Table 9); format: binding; conditions: read-out: % inhibition at 1 uM, PIK4CB
Description: as §2

FLT3(ITD) = assay: Kinase panel at 1 uM (Table 9); format: binding
Description: as §2

PIP5K2C = PIP5K2C (Homo sapiens (Human), UniProt Q8TBX8); assay: Kinase panel at 1 uM (Table 9); format: binding; conditions: read-out: % inhibition at 1 uM, PIP5K2C
Description: as §2

BCWM.1 cells = assay: Cell proliferation analysis for WM and lymphoma cell lines (CellTiter-Glo); format: cell-based; conditions: BCWM1; 72 hours
Description: (§3) Various cell lines were used including Waldenström's macroglobulinemia (WM) cell lines (BCWM.1, MWCL-1, RPCI-WM1) and B-cell lymphoma cell lines (OCI-Ly3, Ramos, OCI-Ly19). Cells were seeded into 384 well plates with the EL406 Combination Washer Dispenser (BioTek Instruments, Inc.) and inhibitor compounds were injected into the cells culture media with the JANUS Automated Workstation (PerkinElmer Inc.).

MWCL-1 cells = assay: as above; format: cell-based; conditions: 72 hours
Description: as §3

OCI-Ly3 cells = assay: as above; format: cell-based; conditions: Homo sapiens, 72 hours
Description: as §3

Ramos cells = assay: as above; format: cell-based; conditions: Homo sapiens, 72 hours
Description: as §3

OCI-Ly19 cells = assay: as above; format: cell-based; conditions: Homo sapiens, 72 hours
Description: as §3

T1 sequence (P51813 whole entry): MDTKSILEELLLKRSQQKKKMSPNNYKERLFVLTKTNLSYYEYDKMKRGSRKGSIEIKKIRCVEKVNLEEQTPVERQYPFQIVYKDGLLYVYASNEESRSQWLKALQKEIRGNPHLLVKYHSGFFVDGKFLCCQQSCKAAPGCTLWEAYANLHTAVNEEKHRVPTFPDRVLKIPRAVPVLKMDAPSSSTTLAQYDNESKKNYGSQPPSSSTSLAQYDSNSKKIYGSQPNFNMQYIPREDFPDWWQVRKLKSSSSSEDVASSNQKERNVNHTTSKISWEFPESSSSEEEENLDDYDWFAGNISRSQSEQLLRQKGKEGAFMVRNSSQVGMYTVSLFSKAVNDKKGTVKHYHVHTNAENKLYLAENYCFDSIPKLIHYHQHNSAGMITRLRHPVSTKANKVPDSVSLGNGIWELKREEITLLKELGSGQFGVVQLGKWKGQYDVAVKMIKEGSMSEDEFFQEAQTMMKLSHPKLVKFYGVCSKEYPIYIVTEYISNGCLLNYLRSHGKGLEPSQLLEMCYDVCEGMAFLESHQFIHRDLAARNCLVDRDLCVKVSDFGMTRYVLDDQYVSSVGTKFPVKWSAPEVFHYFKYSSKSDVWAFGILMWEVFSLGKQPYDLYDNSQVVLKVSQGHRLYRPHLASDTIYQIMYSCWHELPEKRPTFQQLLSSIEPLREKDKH

C=CC(=O)Nc1cc(-n2c(=O)ccc3cnc4ccc(-c5cn[nH]c5)cc4c32)ccc1C [II-6]
IC50 (BMX [1]): 7.36 nM and 7 nM
IC50 (BTK [2]): 5.34 nM and 5 nM
IC50 (BLK [3]): 30.2 nM and 30 nM
IC50 (mTOR [4]): 21.9 nM and 22 nM
IC50 (CLK1 [5]): 384 nM
IC50 (CLK2 [6]): 50 nM
IC50 (JAK3 [7]): 38.1 nM and 38 nM
IC50 (EGFR(T790M) [8]): 98.8 nM
Percent Control, BMX (BMX [9]): 4.6%
Percent Control, BLK (BLK [10]; DiscoverX binding): 2.4%
inhibition at 1 µM (BLK [10]; read-out: % inhibition at 1 uM, BLK): 2.4%
Percent Control, BTK (BTK [11]; DiscoverX binding): 0.2%
percent of control (remaining binding) at 1 µM (BTK [11]; read-out: % inhibition at 1 uM, BTK): 0.2%
Percent Control, JAK3 (JAK3 [12]; DiscoverX binding): 0%
inhibition at 1 µM (JAK3 [12]; read-out: % inhibition at 1 uM, JAK3(JH1domain-catalytic)): 0%
Percent Control, EGFR(T790M) (EGFR(T790M) [13]; DiscoverX binding): 1.8%
inhibition at 1 µM (EGFR(T790M) [13]; read-out: % inhibition at 1 uM, EGFR(T790M)): 1.4%
Percent Control, ITK (ITK): 29%
Percent Control, TEC (TEC): 6%
Percent Control, mTOR (mTOR [14]): 0%
Percent Control, CLK1/2 (CLK1) (CLK1 [15]; DiscoverX binding, first value of cell): 0.4%
inhibition at 1 µM (CLK1 [15]; read-out: % inhibition at 1 uM, CLK1): 0.4%
Percent Control, CLK1/2 (CLK2) (CLK2 [16]; DiscoverX binding, second value of cell): 1.0%
inhibition at 1 µM (CLK2 [16]; read-out: % inhibition at 1 uM, CLK2): 1.6%
inhibition at 1 µM (PIK3CG): 4.2%
inhibition at 1 µM (DYRK1A): 0.1%
inhibition at 1 µM (MKNK2): 0.15%
inhibition at 1 µM (MEK5): 0.3%
inhibition at 1 µM (TAK1): 0.35%
inhibition at 1 µM (PIK3CA(I800L)): 0.45%
inhibition at 1 µM (DYRK2): 0.6%
inhibition at 1 µM (IRAK3): 0.7%
inhibition at 1 µM (CSNK2A2): 1.2%
inhibition at 1 µM (YSK4): 1.2%
inhibition at 1 µM (DYRK1B): 1.8%
inhibition at 1 µM (JNK3): 1.8%
inhibition at 1 µM (JNK1): 1.9%
inhibition at 1 µM (PIK4CB): 2.3%
% inhibition at 1 uM, FLT3(ITD) (FLT3(ITD)): 2.4%
inhibition at 1 µM (PIP5K2C): 2.7%
EC50 (BCWM.1 cells): 50 nM
EC50 (MWCL-1 cells): 180 nM
EC50 (OCI-Ly3 cells): 80 nM
EC50 (Ramos cells): 40 nM
EC50 (OCI-Ly19 cells): 40 nM
